Read-outs that look alike come from different tables or passages of the source.
Legend:
Experiment in all cases: Herbicidal effect test under submerged conditions, inhibition ratio (Test Example 6)
Assay type in all cases: in vivo
[1] = tested on: Monochoria vaginalis; conditions: Pontederia vaginalis, 504 h, read-out: inhibition ratio (%), C (Monochoria vaginalis); for pest or weed control at 2 g/ha: dosage 2 g/ha
Text: (§1) [Test Example 6] Herbicidal effect test under submerged conditions
(§2) In a 1/5,000-are Wagner pot was filled alluvial soil, which was mixed with water introduced therein to establish submerged conditions at a water depth of 4 cm. After seeds of Monochoria vaginalis and Scirpus juncoides were sowed mixedly in the pot, 2.5 leaf stage rice seedlings were transplanted at a depth of 2 cm. On the next day of transplantation of the rice, the compound of the present invention prepared according to one of Composition Examples was applied. Three weeks after the treatment, the live weights of aerial parts of each kind of the weeds and rice were measured and inhibition ratios (%) were obtained according to Test Example 4. In the tables, (E) indicates expected values obtained by the equation of Colby and (F) indicates found values. Left side values and right side values in the column of application rate for each active ingredient indicate corresponding dosages of compounds in the column of compound name.
(§3) Synergistic herbicidal effect of herbicide mixtures will be explained as follows. That is, individual active compounds in many cases may be deficient in their herbicidal activity. In such a case, if the herbicidal activity of two active compounds in combination is higher than the simple sum of the activities of the compounds (expected activity), then this is called synergistic action. The expected activity from the stable combination of two herbicides, can be calculated as follows. (cf. Colby, S. R., Calculation of Synergistic and Antagonistic Reactions of Combination of Herbicides, Weed, vol. 15, pages 20-22 (1967)) E = α + β - ( α · β / 100) [formula] α : Inhibition ratio when herbicide A is applied in a rate of a kg/ha β : Inhibition ratio when herbicide B is applied in a rate of b kg/ha E : Inhibition ratio expected when herbicide A is applied in a rate of a kg/ha and herbicide B is applied in a rate of b kg/ha.

[2] = tested on: Scirpus juncoides; conditions: Schoenoplectiella juncoides, 504 h, read-out: inhibition ratio (%), B (Scirpus juncoides); for pest or weed control at 2 g/ha: dosage 2 g/ha
Text: as §1, §2, §3

[3] = tested on: transplanted rice; conditions: dosage 4 g/ha; live weight of aerial part, three weeks after the treatment
Text: Herbicidal effect test under submerged conditions
In a 1/5,000-are Wagner pot was filled alluvial soil, which was mixed with water introduced therein to establish submerged conditions at a water depth of 4 cm. After seeds of Monochoria vaginalis and Scirpus juncoides were sowed mixedly in the pot, 2.5 leaf stage rice seedlings were transplanted at a depth of 2 cm. On the next day of transplantation of the rice, the compound of the present invention prepared according to one of Composition Examples was applied. […] In the tables, (E) indicates expected values obtained by the equation of Colby and (F) indicates found values.
The expected activity from the stable combination of two herbicides, can be calculated as follows.

[4] = live weight of aerial part, three weeks after the treatment
[5] = dosage 4 g/ha, live weight of aerial part, three weeks after the treatment

Row | SMILES | pest or weed control at 2 g/ha [1, 4] | pest or weed control at 2 g/ha [2, 4] | pest or weed control at 4 g/ha [1, 5] | pest or weed control at 4 g/ha [2, 5] | inhibition ratio (%), a (transplanted rice) [3] | also measured
1 | COc1cc(OC)nc(NC(=O)NS(=O)(=O)c2c(-c3nnn(C)n3)cnn2C)n1 [R-5, azimsulfuron] | 75% | 61% |  |  |  | 
2 | COc1cc(OC)nc(NC(=O)NS(=O)(=O)Nc2ccccc2C(=O)C2CC2)n1 [R-6, cyclosulfamuron] |  |  | 77% | 78% | 0% | 
3 | CCOc1ccccc1OS(=O)(=O)NC(=O)Nc1nc(OC)cc(OC)n1 [R-7, ethoxysulfuron] | 63% | 72% |  |  |  | 
4 | COCCOc1ccccc1S(=O)(=O)NC(=O)N=c1nc(OC)[nH]c(OC)n1 [R-8, cinosulfuron] |  |  |  |  | 0% | pest or weed control at 4 g/ha [1]: 69%; pest or weed control at 4 g/ha [2]: 70%
5 | COC(=O)c1ccccc1CS(=O)(=O)NC(=O)Nc1nc(OC)cc(OC)n1 [R-9, bensulfuron methyl] |  |  | 69% | 68% |  | 
